Drawing on ChEMBL document CHEMBL3992482 (Medchemcomm, 2016), this text covers IC50 and Activity for 32 molecules.

For one assay, the system named is MCF7. The experiment in a line: Cytotoxicity against human MCF7 cells assessed as reduction in cell viability after 48 hrs by MTT assay. Type of assay: functional, cell-based. The following applies: MCF7, 48 h. (In general: Tetrazolium assays rely on reduction of a dye to a coloured formazan, in cell work by metabolically active cells.)
The subject of assay [1] is HeLa. The experiment in a line: Cytotoxicity against human HeLa cells assessed as reduction in cell viability after 48 hrs by MTT assay. It counts as functional, cell-based.
Another assay concerns A549. Nature of the assay: Cytotoxicity against human A549 cells assessed as reduction in cell viability after 48 hrs by MTT assay. The following applies: A549, 48 h. It counts as functional, cell-based.
For assay [2], the system named is HeLa. The experiment in a line: Induction of apoptosis in human HeLa cells assessed as crescent shaped cell masses at 5 to 10 uM after 24 hrs by […] staining based fluorescence microscopic method. It counts as functional.
The subject of assay [3] is HeLa. Nature of the assay: Induction of apoptosis in human HeLa cells assessed as nuclear fragmentation after 24 hrs by acridine orange/ethidium bromide staining based fluorescence confocal microscopic method. It counts as functional, cell-based.
Assay [4] has as its system HeLa. The experiment in a line: Induction of apoptosis in human HeLa cells assessed as necrotic cells at 5 uM after 24 hrs by Annexin-V FITC/propidium iodide staining based flow cytometry (reference value: 1.81%). It counts as functional. Background: Flow cytometry measures light scatter and fluorescence of single cells or particles in a stream.
For assay [5], the system named is HeLa. Nature of the assay: Cell cycle arrest in human HeLa cells assessed as accumulation at S phase at 5 uM after 24 hrs by propidium iodide staining based flow cytometry (reference value: 23.69%). Type of assay: functional.
The subject of assay [6] is HeLa. The experiment in a line: Induction of apoptosis in human HeLa cells assessed as live cells at 5 uM after 24 hrs by Annexin-V FITC/propidium iodide staining based flow cytometry (reference value: 95.5%). Type of assay: functional.
Assay [7] relates to HeLa. Nature of the assay: Cell cycle arrest in human HeLa cells assessed as accumulation at G1 phase at 10 uM after 24 hrs by propidium iodide staining based flow cytometry (reference value: 66.42%). Type of assay: functional.
Assay [8] deals with HeLa. The experiment in a line: Induction of apoptosis in human HeLa cells assessed as early apoptotic cells at 10 uM after 24 hrs by Annexin-V FITC/propidium iodide staining based flow cytometry (reference value: 2.36%). Type of assay: functional.
Assay [9] relates to HeLa. Nature of the assay: Induction of apoptosis in human HeLa cells assessed as late apoptotic cells at 5 uM after 24 hrs by Annexin-V FITC/propidium iodide staining based flow cytometry (reference value: 0.29%). It counts as functional.
Assay [10] relates to HeLa. The experiment in a line: Cell cycle arrest in human HeLa cells assessed as accumulation at S phase after 24 hrs by propidium iodide staining based flow cytometry. It counts as functional.
Assay [11] deals with HeLa. The experiment in a line: Cell cycle arrest in human HeLa cells assessed as accumulation at G1 phase at 5 uM after 24 hrs by propidium iodide staining based flow cytometry (reference value: 66.42%). Type of assay: functional.
Assay [12] relates to HeLa. Nature of the assay: Cell cycle arrest in human HeLa cells assessed as accumulation at G2/M phase at 10 uM after 24 hrs by propidium iodide staining based flow cytometry (reference value: 9.89%). It counts as functional.
Assay [13] deals with HeLa. Nature of the assay: Induction of apoptosis in human HeLa cells assessed as chromatin condensation after 24 hrs by acridine orange/ethidium bromide staining based fluorescence confocal microscopic method. Type of assay: functional, cell-based.
Assay [14] deals with HeLa. Nature of the assay: Cell cycle arrest in human HeLa cells assessed as accumulation at S phase at 10 uM after 24 hrs by propidium iodide staining based flow cytometry (reference value: 23.69%). It counts as functional.
The test system of assay [15] is HeLa. Nature of the assay: Induction of apoptosis in human HeLa cells assessed as early apoptotic cells at 5 uM after 24 hrs by Annexin-V FITC/propidium iodide staining based flow cytometry (reference value: 2.36%). Type of assay: functional.
Assay [16] deals with HeLa. The experiment in a line: Induction of apoptosis in human HeLa cells assessed as live cells at 10 uM after 24 hrs by Annexin-V FITC/propidium iodide staining based flow cytometry (reference value: 95.5%). Type of assay: functional.
Assay [17] has as its system HeLa. Nature of the assay: Induction of apoptosis in human HeLa cells assessed as ring shaped cell masses at 5 to 10 uM after 24 hrs by […] staining based fluorescence microscopic method. It counts as functional.
Assay [18] has as its system HeLa. The experiment in a line: Induction of apoptosis in human HeLa cells after 24 hrs by Annexin-V FITC/propidium iodide staining based flow cytometry. Type of assay: functional, cell-based.
In assay [19] the test system is HeLa. Nature of the assay: Induction of apoptosis in human HeLa cells assessed as necrotic cells at 10 uM after 24 hrs by Annexin-V FITC/propidium iodide staining based flow cytometry (reference value: 1.81%). It counts as functional.
Assay [20] has as its system HeLa. Nature of the assay: Induction of apoptosis in human HeLa cells assessed as late apoptotic cells at 10 uM after 24 hrs by Annexin-V FITC/propidium iodide staining based flow cytometry (reference value: 0.29%). Type of assay: functional.
Assay [21] has as its system HeLa. Nature of the assay: Cell cycle arrest in human HeLa cells assessed as accumulation at G2/M phase at 5 uM after 24 hrs by propidium iodide staining based flow cytometry (reference value: 9.89%). It counts as functional.

Activity calls are given as the source filed them. The rule behind the calls is not given here.

In general, IC50 refers to the concentration that gives 50% inhibition.

On to `CC(C)(C)c1nc(Nc2ccccc2[N+](=O)[O-])sc1Cc1ccc2c(c1)OCO2`, for which the IC50 with MCF7 was > 200 µM; in the assay on HeLa [1], 194 µM; with A549, 82.8 µM.
The corresponding values for `CC(C)(C)c1nc(Nc2ccccc2)sc1Cc1ccc2c(c1)OCO2` are 11.6 µM, 12 µM and 20.4 µM.
On the same counts, the results for `CC(C)(C)c1nc(Nc2c(Br)cc(OC(F)(F)F)cc2Br)sc1Cc1ccc2c(c1)OCO2` are 103 µM, 53.3 µM and 103 µM.
On to `CC(C)(C)c1nc(Nc2ccc([N+](=O)[O-])cc2F)sc1Cc1ccc2c(c1)OCO2`, for which the results for the IC50 in the assay on MCF7, in the assay on HeLa [1] and in the assay with A549 were 33.3 µM, 19.3 µM and 67.2 µM, respectively.
On the same counts, the results for `Cc1ccc2cccc(Nc3nc(C(C)(C)C)c(Cc4ccc5c(c4)OCO5)s3)c2n1` are > 200 µM, 65.1 µM and 55.5 µM.
As to `CC(C)(C)c1nc(Nc2ccc([N+](=O)[O-])cc2)sc1Cc1ccc2c(c1)OCO2`, the IC50 turned out to be 2.55 µM in the assay on MCF7, 4.15 µM in the assay on HeLa [1] and 8.26 µM in the assay with A549.
The corresponding values for `CC(C)(C)c1nc(Nc2ccc(C(F)(F)F)cc2)sc1Cc1ccc2c(c1)OCO2` are 3.54 µM, 10.4 µM and 9.22 µM.
On the same counts, the results for `CC(C)(C)c1nc(Nc2cccc(C(F)(F)F)c2)sc1Cc1ccc2c(c1)OCO2` are 3.32 µM, 13 µM and 15.8 µM.
The corresponding values for `CC(C)(C)c1nc(Nc2cc(Cl)cc(Cl)c2)sc1Cc1ccc2c(c1)OCO2` are 17.7 µM, 5.8 µM and 17 µM.
For the molecule `CC(=O)O[C@H]1C(=O)[C@@]2(C)[C@H]([C@H](OC(=O)c3ccccc3)[C@]3(O)C[C@H](OC(=O)[C@H](O)[C@@H](NC(=O)c4ccccc4)c4ccccc4)C(C)=C1C3(C)C)[C@]1(OC(C)=O)CO[C@@H]1C[C@@H]2O` [PACLITAXEL], the IC50 is 14 µM with MCF7, 19.3 µM with HeLa [1] and 21 µM in the assay with A549.
`Cc1ccc(Nc2nc(C(C)(C)C)c(Cc3ccc4c(c3)OCO4)s2)cc1C`: the IC50 with MCF7 was determined as 20.4 µM; in the assay with HeLa [1], 20.7 µM; in the assay with A549 it was 12.2 µM.
Take `CC(C)(C)c1nc(Nc2ccc(F)c(Cl)c2)sc1Cc1ccc2c(c1)OCO2`: the outcome in the assay on HeLa [2] and in the assay on HeLa [17] was Active. Moreover, the Activity result in the assay on HeLa [3] was “Dose-dependent effect”; in the assay with HeLa [4] it was 0.61%; in the assay on HeLa [5], 28.69%; with HeLa [6], 86.1%; in the assay on HeLa [7], 53.81%; in the assay on HeLa [8] it was 19.5%. Also, the Activity in the assay with HeLa [9] was 1.58%; in the assay with HeLa [10] it was “Dose-dependent effect”; in the assay with HeLa [11] it was 60.8%; in the assay with HeLa [12], 9.56%; with HeLa [13] it was “Dose-dependent effect”; in the assay with HeLa [14], 36.63%. In addition, the Activity was 11.7% in the assay on HeLa [15]; 75.2% with HeLa [16]; “Dose-dependent effect” in the assay on HeLa [18]; 0.94% in the assay with HeLa [19]; 4.39% in the assay on HeLa [20]; 10.51% in the assay on HeLa [21]. The IC50 is 8.66 µM with MCF7, 4.6 µM in the assay on HeLa [1] and 16.3 µM in the assay with A549.
Regarding `CC(C)(C)c1nc(Nc2ccc(Br)cc2)sc1Cc1ccc2c(c1)OCO2`, the IC50 with MCF7 was 4.71 µM; with HeLa [1], 13.3 µM; in the assay on A549, 10.1 µM.
In the case of `Cc1cccc(Nc2nc(C(C)(C)C)c(Cc3ccc4c(c3)OCO4)s2)c1`, the IC50 is 4.91 µM in the assay on MCF7, 18.8 µM in the assay with HeLa [1] and 12.7 µM with A549.
The corresponding values for `CC(C)(C)c1nc(Nc2ccc(Cl)cc2)sc1Cc1ccc2c(c1)OCO2` are 3.48 µM, 11 µM and 9.19 µM.
For the molecule `Cc1ccccc1Nc1nc(C(C)(C)C)c(Cc2ccc3c(c2)OCO3)s1`, the IC50 is 19.1 µM in the assay on MCF7, 24.8 µM in the assay on HeLa [1] and 18.7 µM with A549.
The corresponding values for `O=c1[nH]cc(F)c(=O)[nH]1` [FLUOROURACIL] are 79.3 µM, 56.5 µM and 26 µM.
For `Cc1ccc(Nc2nc(C(C)(C)C)c(Cc3ccc4c(c3)OCO4)s2)c(C)c1`, the results for the IC50 in the assay on MCF7, with HeLa [1] and in the assay on A549 were 18.7 µM, 18.9 µM and 11.3 µM, respectively.
Regarding `CC(C)(C)c1nc(Nc2ccccn2)sc1Cc1ccc2c(c1)OCO2`, the IC50 was found to be 4.71 µM in the assay with MCF7, 4.79 µM in the assay on HeLa [1] and 5.13 µM in the assay with A549.
On the same counts, the results for `CC(C)(C)c1nc(Nc2cccc(Br)c2)sc1Cc1ccc2c(c1)OCO2` are 4.66 µM, 6.43 µM and 5 µM.
For `CC(C)(C)c1nc(Nc2cccc(Cl)c2)sc1Cc1ccc2c(c1)OCO2`, the values for the IC50 in the assay with MCF7, in the assay on HeLa [1] and in the assay on A549 were 3 µM, 8.27 µM and 2.06 µM, respectively.
For `Cc1cccc(C)c1Nc1nc(C(C)(C)C)c(Cc2ccc3c(c2)OCO3)s1`, the IC50 in the assay on MCF7 was determined as 20.1 µM; in the assay with HeLa [1] it was 83.5 µM; with A549, 15.9 µM.
The corresponding values for `CCOC(=O)c1ccc(Nc2nc(C(C)(C)C)c(Cc3ccc4c(c3)OCO4)s2)cc1` are 5.95 µM, 47.5 µM and 8.51 µM.
As to `CC(C)(C)c1nc(Nc2ccccc2F)sc1Cc1ccc2c(c1)OCO2`, the IC50 was 4.49 µM with MCF7, 18.3 µM with HeLa [1] and 7.57 µM in the assay with A549.
The corresponding values for `CC(C)(C)c1nc(Nc2ccccc2Cl)sc1Cc1ccc2c(c1)OCO2` are 8.99 µM, 18.9 µM and 6.84 µM.
`CC(C)(C)c1nc(Nc2ccccc2Br)sc1Cc1ccc2c(c1)OCO2`: the IC50 is 39.9 µM with MCF7, 52 µM in the assay with HeLa [1] and 26.1 µM in the assay on A549.
As for `CC(C)(C)c1nc(Nc2ccc(Cl)c(Cl)c2)sc1Cc1ccc2c(c1)OCO2`, the IC50 in the assay with MCF7 stood at 11.2 µM; in the assay with HeLa [1], 7.83 µM; in the assay on A549 it was 11.5 µM.
For the molecule `CC(C)(C)c1nc(Nc2cccc3ccccc23)sc1Cc1ccc2c(c1)OCO2`, the results for the IC50 with MCF7, in the assay with HeLa [1] and with A549 were 22.3 µM, 14.1 µM and 55.2 µM, respectively.
On to `CC(C)(C)c1nc(Nc2cccc(Cl)c2Cl)sc1Cc1ccc2c(c1)OCO2`, for which the IC50 with MCF7 worked out at 19.4 µM; with HeLa [1], 34.6 µM; in the assay on A549 it was 14.2 µM.
The corresponding values for `COc1ccc(Nc2nc(C(C)(C)C)c(Cc3ccc4c(c3)OCO4)s2)cc1` are 9.36 µM, 11.7 µM and 10.1 µM.
The corresponding values for `CC(C)(C)c1nc(Nc2ccc(F)cc2)sc1Cc1ccc2c(c1)OCO2` are 15 µM, 25.3 µM and 5.81 µM.
Consider `CC(C)(C)c1nc(Nc2ccc([N+](=O)[O-])cc2Cl)sc1Cc1ccc2c(c1)OCO2`, for which the IC50 came to 76.5 µM in the assay on MCF7, 51.7 µM with HeLa [1] and 80.9 µM in the assay with A549.
